Values quoted from earlier work, collected in patent US20070281020A1, “PHARMACEUTICAL COMPOSITIONS FOR SUSTAINED RELEASE OF PHENYLEPHRINE” (priority 2006, published 2007).

Conditions: active metabolite of loratadine

## Clc1ccc2c(c1)CCc1cccnc1C2=C1CCNCC1 [desloratadine]
  half-life (t1/2): 15 to 19 h
